Literature values in US20100035755A1, “METHOD OF CONTROLLING WEEDS IN A TURF GRASS BY USING SULFONYLUREA COMPOUNDS” (Moghu Research Center Ltd., priority 2008, published 2010).
Where two headings read alike, the source gives them in different places.

Assays:
warm season turf grass = details: cited from earlier work
cool season turf grass = details: cited from earlier work
Poa annua = details: background statement on existing herbicides; cited from earlier work
[1] = background statement, zoysiagrass, Burmudagrass
[2] = background statement, creeping bentgrass, Kentucky bluegrass

Compound | safety to warm season turf grass (warm season turf grass; [1]) | safety to cool season turf grass (cool season turf grass; [2]) | controlling Poa annua (Poa annua) | safety to warm season turf grass (warm season turf grass; in vivo) | safety to cool season turf grass (cool season turf grass; in vivo)
COc1cc(OC)nc(NC(=O)NS(=O)(=O)c2ncccc2OCC(F)(F)F)n1 [R. 2, Trifloxysulfuron] | have a safety | no safety | – | – | –
COC(=O)c1c(Cl)nn(C)c1S(=O)(=O)NC(=O)Nc1nc(OC)cc(OC)n1 [R. 3, Halosulfuron-methyl] | safe | safe | ineffective | – | –
COc1cc(OC)nc(NC(=O)NS(=O)(=O)Nc2ccccc2C(=O)C2CC2)n1 [R. 4, Cyclosulfamuron] | – | – | ineffective | safe | safe
